# Test results: patent US20250171423A1, “PHARMACEUTICAL COMPOUNDS FOR THE TREATMENT OF COMPLEMENT MEDIATED DISORDERS” (Achillion Pharmaceuticals, Inc., priority 2020, published 2025)
# Molecular target: T1, Human complement C1s enzyme (Homo sapiens, UniProt P09871)
# T1 construct: purified from human serum, Complement Technology, Inc; purchased Complement Technology, Inc; host or cells: human serum
# T1 sequence (P09871 438-688 limits assumed): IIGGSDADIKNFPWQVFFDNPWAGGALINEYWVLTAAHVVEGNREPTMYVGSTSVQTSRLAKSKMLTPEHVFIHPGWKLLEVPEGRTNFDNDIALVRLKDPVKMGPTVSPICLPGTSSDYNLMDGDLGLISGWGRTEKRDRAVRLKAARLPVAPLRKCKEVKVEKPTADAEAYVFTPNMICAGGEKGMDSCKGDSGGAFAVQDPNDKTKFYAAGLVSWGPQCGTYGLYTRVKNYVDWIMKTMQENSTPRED
# T1 sequence (P09871 16-437 partner limits assumed): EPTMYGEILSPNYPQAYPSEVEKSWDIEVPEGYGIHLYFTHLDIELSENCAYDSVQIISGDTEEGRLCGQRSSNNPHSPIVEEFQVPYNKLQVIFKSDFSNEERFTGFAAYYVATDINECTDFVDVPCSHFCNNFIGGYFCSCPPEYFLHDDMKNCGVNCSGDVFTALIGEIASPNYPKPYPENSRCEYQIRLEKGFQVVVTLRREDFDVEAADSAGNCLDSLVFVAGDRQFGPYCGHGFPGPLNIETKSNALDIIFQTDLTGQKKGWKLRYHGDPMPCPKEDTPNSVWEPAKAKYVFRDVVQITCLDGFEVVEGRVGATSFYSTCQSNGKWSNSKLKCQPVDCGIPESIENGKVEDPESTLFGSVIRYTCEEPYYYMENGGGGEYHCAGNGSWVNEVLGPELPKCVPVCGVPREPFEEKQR
# Assay: Human C1s Enzyme Assay
# Format: biochemical
# Settings: human C1s 1.16 nM, 5 min preincubation, substrate Z-L-Lys-SBzl 100 μM, A405; read-out: C1s Protease Activity
# In short: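 IC50 values were fitted by nonlinear regression to rates measured as A405 every 30 s for 30 min. The thioester substrate Z-L-Lys-SBzl and Ellman's reagent were each at 100 μM. Serum-derived C1s at 1.16 nM final had 5 min of room-temperature preincubation with compound (pH 7.5 Tris buffer, 1 M NaCl).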
row,SMILES,IC50
1,"CC(=O)NCCOC[C@@]12C[C@@H]1N(C(=O)CNC(=O)CCCOc1ccccc1)[C@H](C(=O)N[C@H](C)c1cc(C(=N)N)cs1)C2 [Compound 142, (1S,3S,5R)-5-((2-acetamidoethoxy)methyl)-N-((R)-1-(4-carbamimidoylthiophen-2-yl)ethyl)-2-((4-phenoxybutanoyl)glycyl)-2-azabicyclo[3.1.0]hexane-3-carboxamide]",100 to 1000 nM
2,"COCCCC(=O)NCC(=O)N1[C@H]2C[C@@]2(C)C[C@H]1C(=O)NCc1cc(C(=N)N)cs1 [Compound 75, (1S,3S,5S)-N-((4-carbamimidoylthiophen-2-yl)methyl)-2-((4-methoxybutanoyl)-glycyl)-5-methyl-2-azabicyclo[3.1.0]hexane-3-carboxamide]",100 to 1000 nM
3,"N=C(N)c1csc([C@@H](NC(=O)[C@@H]2CC3(CN2C(=O)CNC(=O)CCCOc2ccccc2)OCCO3)C2CC2)c1 [Compound 178, (S)-N-((S)-(4-carbamimidoylthiophen-2-yl)(cyclopropyl)methyl)-7-((4-phenoxybutanoyl)glycyl)-1,4-dioxa-7-azaspiro[4.4]nonane-8-carboxamide]",> 1000 nM
4,"C[C@@H](NC(=O)[C@@H]1CC2(CN1C(=O)CNC(=O)CCCOc1ccccc1)OCCO2)c1cc(C(=N)N)cs1 [Compound 115, (S)-N-((R)-1-(4-carbamimidoylthiophen-2-yl)ethyl)-7-((4-phenoxybutanoyl)glycyl)-1,4-dioxa-7-azaspiro[4.4]nonane-8-carboxamide]",< 100 nM
5,"N=C(N)c1csc([C@@H](NC(=O)[C@@H]2CC3(CN2C(=O)CNC(=O)CCCOc2ccccc2)OCCO3)C2CCCC2)c1 [Compound 179, (S)-N-((S)-(4-carbamimidoylthiophen-2-yl)(cyclopentyl)methyl)-7-((4-phenoxybutanoyl)glycyl)-1,4-dioxa-7-azaspiro[4.4]nonane-8-carboxamide]",> 1000 nM

# Second part, the compound after the results:
row,IC50,SMILES
1,< 100 nM,"N=C(N)c1csc([C@@H](CO)NC(=O)[C@@H]2C[C@@H](OC(F)F)CN2C(=O)CNC(=O)c2ccc(Oc3ccccc3)cc2)c1 [Compound 197, (2S,4R)-N-((R)-1-(4-carbamimidoylthiophen-2-yl)-2-hydroxyethyl)-4-(difluoromethoxy)-1-((4-phenoxybenzoyl)glycyl)pyrrolidine-2-carboxamide]"
2,< 100 nM,"C[C@@H](NC(=O)[C@@H]1C[C@H](C2CCCCC2)CN1C(=O)CNC(=O)CCCOc1ccccc1)c1cc(C(=N)N)cs1 [Compound 243, (2S,4R)-N-((R)-1-(4-carbamimidoylthiophen-2-yl)ethyl)-4-cyclohexyl-1-((4-phenoxybutanoyl)glycyl)pyrrolidine-2-carboxamide]"
3,< 100 nM,"N=C(N)c1csc(CNC(=O)[C@@H]2CCC(=O)N2C(=O)CNC(=O)c2ccc(Oc3ccccc3)cc2)c1 [Compound 7, (S)-N-((4-carbamimidoylthiophen-2-yl)methyl)-5-oxo-1-((4-phenoxybenzoyl)glycyl)-pyrrolidine-2-carboxamide]"
4,< 100 nM,"N=C(N)c1csc(CNC(=O)[C@@H]2C[C@H](C(F)F)CN2C(=O)CNC(=O)c2ccc(Oc3ccccc3)cc2)c1 [Compound 51, (2S,4S)-N-((4-carbamimidoylthiophen-2-yl)methyl)-4-(difluoromethyl)-1-((4-phenoxybenzoyl)glycyl)pyrrolidine-2-carboxamide]"
5,> 1000 nM,"CC(C)C(NC(=O)[C@@H]1C[C@@H](OC(F)F)CN1C(=O)CNC(=O)c1ccc(Oc2ccccc2)cc1)c1cc(C(=N)N)cs1 (stereo in doubt) [Compound 188, (2S,4R)-N-((S)-1-(4-carbamimidoylthiophen-2-yl)-2-methylpropyl)-4-(difluoromethoxy)-1-((4-phenoxybenzoyl)glycyl)pyrrolidine-2-carboxamide]"
6,> 1000 nM,"CC(C)C[C@@H](NC(=O)[C@@H]1CC2(CN1C(=O)CNC(=O)CCCOc1ccccc1)OCCO2)c1cc(C(=N)N)cs1 [Compound 173, (S)-N-((R)-1-(4-carbamimidoylthiophen-2-yl)-3-methylbutyl)-7-((4-phenoxybutanoyl)glycyl)-1,4-dioxa-7-azaspiro[4.4]nonane-8-carboxamide]"
